Data on 2 compounds can be found in patent US20240246942A1, “KINASE INHIBITORS FOR THE TREATMENT OF NEURODEGENERATIVE DISEASES” (priority 2020, published 2024).

In data set [1] the target is T1, panel of 374 wild-type kinases (Homo sapiens, UniProt P53779).
T1 construct: purchased Reaction Biology Corporation
The data set can be described thus: biochemical. Particulars: read-out: % Enzyme Activity (relative to DMSO controls), JNK3; 10 uM.

The target in a further data set is JNK1 (Homo sapiens, UniProt P45983). The data set can be described thus: JNK1 homogeneous time-resolved fluorescence enzyme inhibition assay. It counts as biochemical. The following applies: mean of ≥2 experiments; read-out: Biochemical inhibition IC50 JNK1. How it is done:
(§1) A 10-point titration of all compounds was carried out in 3-fold dilutions from 10 μM to 0.5 nM.

For a further data set, the target named is JNK3α1 (Homo sapiens, UniProt P53779). Type of data set: biochemical. The following applies: mean of ≥2 experiments; read-out: Biochemical inhibition IC50 JNK3. On the procedure:
as §1

The target of a further data set is p38α (Homo sapiens, UniProt Q16539). The data set can be described thus: p38 enzyme inhibition assay. Particulars: mean of ≥2 experiments; read-out: Biochemical inhibition IC50 p38α.
The nature of data set [2]: Pharmacokinetics / brain exposure in mice. Type of data set: in vivo, C57Bl/6J mice. On the procedure:
Pharmacokinetics studies were conducted in C57Bl/6J mice. The compound was formulated in a generic formulation at 1 mg/mL (e.g. 10:40:4:46, DMSO:PEG 400: tween 80: PBS, v:v:v:v) or other specified formulations and dosed at 1 mg/kg intravenous into the femoral vein or 1-10 mg/kg by oral gavage, or […]. Blood was obtained at t=5 min, 15 min, 30 min, 1 hr, 2 hr, 4 hr, 6 hr, and 8 hr. Blood was collected by heart puncture into EDTA containing tubes and plasma was generated by standard centrifugation methods. Brains were collected following perfusion with ice-cold saline, and snap frozen in liquid N2. Both plasma and brains were stored at −80° C. until processing. All procedures and handling were according to standard operating procedures approved by […] at Scripps Florida and/or Ohio State University. In order to assess in vivo pharmacokinetic parameters an LC-MS/MS bioanalytical method was developed where 25 TI of plasma was treated with 125 TI of acetonitrile containing an internal standard in a Millipore Multscreen Slovinter 0.45 micron low binding PTFE hydrophilic filter plate (#MSRLN0450) and allowed to shake at room temperature for five minute. The plate was then centrifuged for 5 minutes at 4000 rpm in a tabletop centrifuge and the filtrate was collected in a polypropylene capture plate. The filtrate (10 TI) is injected using an Agilent 1200 HPLC equipped with a Thermo Betasil C18 HPLC column 5 T (50×2.1 mm) #70105-052130. Mobile Phase A was water with 0.1% formic acid. Mobile phase B was acetonitrile with 0.1% formic acid. […] An API Sciex 4000 equipped with a turbo ion spray source was used for all analytical measurement. MRM methods were developed in position ion mode. Peak areas of the analyte ion were measured against the peak areas of the internal standard. Data was fit using WinNonLin using an IV bolus model.

In data set [3] the target is T2, panel of 374 wild-type kinases (Homo sapiens, UniProt Q86SG6).
T2 construct: purchased Reaction Biology Corporation
The data set can be described thus: biochemical. The following applies: read-out: % Enzyme Activity (relative to DMSO controls), NEK8; 5 uM.

Data set [4] addresses T3, panel of 374 wild-type kinases (Homo sapiens, UniProt Q9H792).
T3 construct: purchased Reaction Biology Corporation
The data set can be described thus: biochemical. Particulars: read-out: % Enzyme Activity (relative to DMSO controls), kinase PEAK1; 5 uM.

Data set [5] has as its system JNK3-dependent phosphorylation of APP at T668. The data set can be described thus: JNK3 inhibition assay in rat primary neuron cultures (Western blot, anisomycin activated). It counts as cell-based. The following applies: even at a concentration as low as 10 nM; FIGS. 5A-5C. How it is done: Both hippocampal and cortical neurons were isolated from E18 rat embryos and cultured in NbActive 1 medium that contains B27 (Brainbits, LLC) plus penicillin/streptomycin (Life Technologies). At the 7th day in culture, cells were treated with different concentrations of inhibitors diluted in DMSO and 80 ng/ml Anisomycin for 30 min to activate the endogenous JNK3. At the end of incubation time, whole cell lysates were prepared in RIPA buffer containing 50 mM Tris (pH 8.0), 150 mM NaCl, 2 mM EDTA, 1% NP-40, 0.5% deoxycholate supplemented with 10 mM Na pyrophosphate, 1 mM sodium orthovanadate, 25 mM NaF, 10 μg/ml leupeptin, 10 μg/ml aprotinin, 1 mM β-glycerophosphate, and 2 mM PMSF. The lysates were subjected to Western blotting to detect whether inhibitors block JNK3-dependent phosphorylation of APP at T668 and c-jun at S73. Phospho-APP^T668, phosphor-c-jun^S73, APP, and c-jun antibodies were from Cell Signaling Technology.

The next data set deals with JNK2 (Homo sapiens, UniProt P45984). The data set can be described thus: JNK2 homogeneous time-resolved fluorescence enzyme inhibition assay. Type of data set: biochemical. Particulars: mean of ≥2 experiments; read-out: Biochemical inhibition IC50 JNK2. How it is done:
as §1

T3 sequence (Q9H792 whole entry): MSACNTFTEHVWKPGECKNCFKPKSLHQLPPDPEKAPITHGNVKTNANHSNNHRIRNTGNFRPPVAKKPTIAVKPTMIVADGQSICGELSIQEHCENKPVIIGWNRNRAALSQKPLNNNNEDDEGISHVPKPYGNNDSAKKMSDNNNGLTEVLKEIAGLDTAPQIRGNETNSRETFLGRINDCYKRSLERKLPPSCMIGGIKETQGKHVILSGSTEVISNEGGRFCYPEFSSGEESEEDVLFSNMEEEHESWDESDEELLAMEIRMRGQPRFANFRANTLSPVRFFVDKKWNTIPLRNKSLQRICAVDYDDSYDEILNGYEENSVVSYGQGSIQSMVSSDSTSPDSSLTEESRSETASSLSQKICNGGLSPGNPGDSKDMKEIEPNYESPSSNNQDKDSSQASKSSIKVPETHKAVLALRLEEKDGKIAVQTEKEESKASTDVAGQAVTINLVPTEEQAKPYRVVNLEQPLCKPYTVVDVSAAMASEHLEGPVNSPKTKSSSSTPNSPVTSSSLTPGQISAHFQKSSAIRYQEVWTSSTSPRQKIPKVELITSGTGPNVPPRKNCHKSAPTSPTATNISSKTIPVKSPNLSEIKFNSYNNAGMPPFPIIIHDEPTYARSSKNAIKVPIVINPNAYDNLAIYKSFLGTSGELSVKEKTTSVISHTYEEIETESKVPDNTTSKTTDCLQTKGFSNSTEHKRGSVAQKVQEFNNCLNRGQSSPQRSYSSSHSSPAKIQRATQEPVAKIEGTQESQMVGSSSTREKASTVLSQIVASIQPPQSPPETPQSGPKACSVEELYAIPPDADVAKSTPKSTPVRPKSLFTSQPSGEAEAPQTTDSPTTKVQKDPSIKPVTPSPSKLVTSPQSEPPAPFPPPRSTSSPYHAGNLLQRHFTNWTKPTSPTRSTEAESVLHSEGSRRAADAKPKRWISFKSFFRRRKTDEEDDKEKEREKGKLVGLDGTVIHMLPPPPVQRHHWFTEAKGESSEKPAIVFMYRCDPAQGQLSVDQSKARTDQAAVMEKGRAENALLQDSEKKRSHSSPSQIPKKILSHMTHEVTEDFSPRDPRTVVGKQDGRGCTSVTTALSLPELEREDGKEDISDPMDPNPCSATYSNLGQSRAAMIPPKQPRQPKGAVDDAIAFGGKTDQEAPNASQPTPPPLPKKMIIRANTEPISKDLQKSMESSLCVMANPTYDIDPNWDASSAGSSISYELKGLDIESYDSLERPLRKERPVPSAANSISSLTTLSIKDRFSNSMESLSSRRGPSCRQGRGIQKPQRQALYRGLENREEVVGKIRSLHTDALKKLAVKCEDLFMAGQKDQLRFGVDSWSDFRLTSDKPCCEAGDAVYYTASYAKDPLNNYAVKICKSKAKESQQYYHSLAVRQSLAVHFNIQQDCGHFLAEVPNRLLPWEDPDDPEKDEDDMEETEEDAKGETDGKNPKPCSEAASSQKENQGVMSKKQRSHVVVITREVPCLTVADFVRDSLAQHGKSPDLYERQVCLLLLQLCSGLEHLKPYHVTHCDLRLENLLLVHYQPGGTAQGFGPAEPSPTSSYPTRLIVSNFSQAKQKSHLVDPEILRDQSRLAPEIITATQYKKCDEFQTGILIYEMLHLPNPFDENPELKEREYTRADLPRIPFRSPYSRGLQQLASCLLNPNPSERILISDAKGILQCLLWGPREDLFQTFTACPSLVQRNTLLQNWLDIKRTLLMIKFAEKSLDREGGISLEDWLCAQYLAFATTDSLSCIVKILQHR
JNK1, sequence (P45983 whole entry): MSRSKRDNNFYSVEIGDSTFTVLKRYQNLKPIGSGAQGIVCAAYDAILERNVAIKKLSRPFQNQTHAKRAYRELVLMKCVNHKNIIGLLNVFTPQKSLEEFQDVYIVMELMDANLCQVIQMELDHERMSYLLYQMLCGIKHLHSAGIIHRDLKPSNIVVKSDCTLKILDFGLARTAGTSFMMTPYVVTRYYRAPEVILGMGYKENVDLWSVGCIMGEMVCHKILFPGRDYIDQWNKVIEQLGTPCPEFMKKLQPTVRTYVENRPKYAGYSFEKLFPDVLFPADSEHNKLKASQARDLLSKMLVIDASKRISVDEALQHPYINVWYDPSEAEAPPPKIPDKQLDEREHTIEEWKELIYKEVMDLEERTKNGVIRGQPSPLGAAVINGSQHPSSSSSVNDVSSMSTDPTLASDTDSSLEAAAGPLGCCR
JNK2, sequence (P45984 whole entry): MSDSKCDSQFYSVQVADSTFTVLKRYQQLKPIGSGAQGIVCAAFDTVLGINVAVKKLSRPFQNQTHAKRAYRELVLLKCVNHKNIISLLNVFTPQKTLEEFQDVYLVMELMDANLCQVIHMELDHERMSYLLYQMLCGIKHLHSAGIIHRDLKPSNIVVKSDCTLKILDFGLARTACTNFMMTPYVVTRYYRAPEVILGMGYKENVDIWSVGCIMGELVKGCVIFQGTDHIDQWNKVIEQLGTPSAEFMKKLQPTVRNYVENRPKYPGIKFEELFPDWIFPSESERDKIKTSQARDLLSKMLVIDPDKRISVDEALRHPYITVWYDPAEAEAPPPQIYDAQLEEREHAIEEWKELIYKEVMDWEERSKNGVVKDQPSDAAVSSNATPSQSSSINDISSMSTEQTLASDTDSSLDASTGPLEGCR
p38α, sequence (Q16539 whole entry): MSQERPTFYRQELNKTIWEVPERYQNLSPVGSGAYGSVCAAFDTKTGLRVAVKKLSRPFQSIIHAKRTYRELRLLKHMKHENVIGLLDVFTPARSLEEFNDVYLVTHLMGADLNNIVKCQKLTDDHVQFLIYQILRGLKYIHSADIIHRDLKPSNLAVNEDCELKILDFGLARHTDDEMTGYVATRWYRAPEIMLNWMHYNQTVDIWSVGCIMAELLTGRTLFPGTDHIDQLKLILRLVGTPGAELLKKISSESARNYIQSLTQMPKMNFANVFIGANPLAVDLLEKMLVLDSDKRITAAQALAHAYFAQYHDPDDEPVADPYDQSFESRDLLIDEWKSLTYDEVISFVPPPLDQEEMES
T2 sequence (Q86SG6 whole entry): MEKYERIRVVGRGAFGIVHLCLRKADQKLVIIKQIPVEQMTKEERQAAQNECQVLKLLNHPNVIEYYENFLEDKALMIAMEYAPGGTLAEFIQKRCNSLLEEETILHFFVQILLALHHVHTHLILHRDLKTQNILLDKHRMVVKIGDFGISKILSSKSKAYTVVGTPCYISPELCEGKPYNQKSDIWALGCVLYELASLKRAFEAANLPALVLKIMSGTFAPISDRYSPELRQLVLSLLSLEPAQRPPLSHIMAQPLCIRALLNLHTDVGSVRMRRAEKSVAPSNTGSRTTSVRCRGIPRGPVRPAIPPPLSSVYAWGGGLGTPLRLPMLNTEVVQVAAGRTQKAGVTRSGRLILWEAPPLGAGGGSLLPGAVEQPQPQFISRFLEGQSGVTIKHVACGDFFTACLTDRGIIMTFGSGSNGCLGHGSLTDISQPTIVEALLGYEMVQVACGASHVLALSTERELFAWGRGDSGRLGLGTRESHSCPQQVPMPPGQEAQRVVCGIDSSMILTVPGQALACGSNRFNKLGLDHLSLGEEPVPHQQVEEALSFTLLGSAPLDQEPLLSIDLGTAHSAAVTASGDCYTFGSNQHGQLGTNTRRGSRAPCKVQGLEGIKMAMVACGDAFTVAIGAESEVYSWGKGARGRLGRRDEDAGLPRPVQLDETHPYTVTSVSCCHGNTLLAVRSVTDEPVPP
JNK3α1, sequence (P53779 1-422 isoform P53779-2): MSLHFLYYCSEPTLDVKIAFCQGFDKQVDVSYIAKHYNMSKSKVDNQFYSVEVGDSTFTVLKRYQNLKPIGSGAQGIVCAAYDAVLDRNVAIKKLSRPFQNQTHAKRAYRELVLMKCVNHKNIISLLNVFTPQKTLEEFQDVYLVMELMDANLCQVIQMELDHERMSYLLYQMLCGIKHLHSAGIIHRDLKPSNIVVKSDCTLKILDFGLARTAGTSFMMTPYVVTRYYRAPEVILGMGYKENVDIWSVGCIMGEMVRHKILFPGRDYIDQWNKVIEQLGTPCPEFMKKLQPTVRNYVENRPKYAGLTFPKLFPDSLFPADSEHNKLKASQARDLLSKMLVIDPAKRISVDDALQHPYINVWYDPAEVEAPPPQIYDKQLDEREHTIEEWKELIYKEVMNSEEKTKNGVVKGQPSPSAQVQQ
T1 sequence (P53779 whole entry): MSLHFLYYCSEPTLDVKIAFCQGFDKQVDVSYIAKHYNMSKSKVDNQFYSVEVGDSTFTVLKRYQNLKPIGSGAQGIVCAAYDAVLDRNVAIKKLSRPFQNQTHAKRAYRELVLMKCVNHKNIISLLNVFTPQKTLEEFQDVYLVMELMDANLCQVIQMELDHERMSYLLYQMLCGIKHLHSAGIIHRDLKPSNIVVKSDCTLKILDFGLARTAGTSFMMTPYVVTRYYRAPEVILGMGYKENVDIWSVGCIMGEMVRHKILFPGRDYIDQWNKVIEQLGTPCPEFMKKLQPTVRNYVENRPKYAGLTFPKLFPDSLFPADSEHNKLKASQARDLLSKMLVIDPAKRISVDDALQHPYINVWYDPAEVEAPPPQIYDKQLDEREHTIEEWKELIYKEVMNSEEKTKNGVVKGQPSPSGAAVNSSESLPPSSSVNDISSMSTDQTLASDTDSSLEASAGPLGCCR

Regarding `Cc1sc(C(=O)NC2COC2)cc1-n1cc(NC(=O)Nc2c(F)cccc2Cl)cn1` [Compound 27, 4-(4-(3-(2-chloro-6-fluorophenyl)ureido)-1H-pyrazol-1-yl)-5-methyl-N-(oxetan-3-yl)thiophene-2-carboxamide], in data set [1], the remaining activity at 10 µM is 10.5%.

`O=C(Nc1cnn(-c2csc(C(=O)NC3COC3)c2)c1)Nc1ccccc1Cl` [Compound 17, 4-(4-(3-(2-chlorophenyl)ureido)-1H-pyrazol-1-yl)-N-(oxetan-3-yl)thiophene-2-carboxamide]: the IC50 was 5.9 µM on JNK1, 35 nM at JNK3α1, above 20 µM on p38α and 1360 nM on JNK2. The brain penetration capability result in data set [2] (po dosing) is reported as “brain penetrant”. In addition, the oral bioavailability result in data set [2] (po dosing) is on record as “has oral bioavailability”. In addition, in data set [2] (po, 10 mg/kg), the “Brain Concentration” value was found to be 1.08 µM. Further, the “Plasma Concentration” value in data set [2] (po, 10 mg/kg) is 0.96 µM. The figures for the remaining activity at 5 µM in data set [3] and in data set [4] were 107% and 91.4%, respectively. Also, the “inhibition of phosphorylation of residue T668 of APP” value in [5] is recorded as “significantly inhibited”.
